Tested on: conjunctiva (eosinophils, neutrophils, mast cell degranulation)
Details: conjunctiva examined two hours after ovalbumin
Protocol: 72 hours after the rats have been sensitized by injecting antiserum into the eyelids of the test animals, a fresh provocation was induced in them by intravenous administration of ovalbumin. Some of the experimental animals were pretreated by the administration of solution containing epinastine according to the invention into the conjunctival sac 15 minutes before the ovalbumin is administered. Two hours after the administration of ovalbumin the experimental animals were killed and the conjunctiva was investigated for its content of eosinophils and neutrophils and the mast cell granulation was determined.

[1] = epinastine solution into the conjunctival sac 15 minutes before i.v. ovalbumin, p<0.01

NC1=NCC2c3ccccc3Cc3ccccc3N12 (stereo not drawn) [epinastine, 3-amino-9,13b-dihydro-1H-dibenz-[c,f]imidazol[1,5-a]azepine]
content of eosinophils in conjunctiva (epinastine solution 0.05-0.5% into the conjunctival sac 15 minutes before i.v. ovalbumin): significantly lower
content of lymphocytes in conjunctiva [1]: significantly lower
inhibition of mast cell degranulation [1]: roughly 35%
